Molecular target: MtKatG (Mycobacterium tuberculosis, UniProt P9WIE5)
Sequence (P9WIE5 whole entry): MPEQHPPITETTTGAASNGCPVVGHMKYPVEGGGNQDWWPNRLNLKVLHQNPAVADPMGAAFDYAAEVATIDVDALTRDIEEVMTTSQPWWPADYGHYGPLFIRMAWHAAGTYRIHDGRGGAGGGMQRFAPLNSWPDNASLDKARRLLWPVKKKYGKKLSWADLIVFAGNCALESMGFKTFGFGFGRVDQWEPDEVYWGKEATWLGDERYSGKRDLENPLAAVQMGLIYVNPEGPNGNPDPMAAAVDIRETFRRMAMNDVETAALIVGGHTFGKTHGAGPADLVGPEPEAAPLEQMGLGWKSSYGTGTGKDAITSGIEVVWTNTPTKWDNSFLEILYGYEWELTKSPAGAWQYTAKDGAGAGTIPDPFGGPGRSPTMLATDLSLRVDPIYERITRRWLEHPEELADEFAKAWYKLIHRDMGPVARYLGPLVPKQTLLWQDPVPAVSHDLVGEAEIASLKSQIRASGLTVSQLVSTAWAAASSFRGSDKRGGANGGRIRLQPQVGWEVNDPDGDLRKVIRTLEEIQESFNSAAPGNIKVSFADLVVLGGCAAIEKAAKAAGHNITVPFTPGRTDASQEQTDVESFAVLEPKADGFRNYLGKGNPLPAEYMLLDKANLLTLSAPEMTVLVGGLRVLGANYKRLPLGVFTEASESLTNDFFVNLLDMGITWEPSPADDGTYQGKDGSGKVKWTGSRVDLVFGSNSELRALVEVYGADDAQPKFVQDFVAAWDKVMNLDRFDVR

Molecule `CC(C)(C)OO` [t-BuOOH] has a Km of 19 ± 6 mM.
